Values after ≈ are worked out from the molar mass of the structure shown. Where two headings read alike, the source gives them in different places.
What was measured:
Mtb = assay: microbe, parasite or virus in culture; format: cell-based, Mycobacterium tuberculosis; settings: Mycobacterium tuberculosis
in vitro = settings: African green monkey
[1] = read-out: MIC, microplate alamar blue assay (MABA; I)

Structure (SMILES)	MIC (Mtb; read-out: MIC (I))	CC50 (in vitro)	MIC (Mtb; [1])
CN(C)CCOC(=O)NC(=O)c1ccsc1NC(=O)c1nc2ccccc2s1 [Compound 39]	> 3 µg/mL	> 50 µg/mL	–
O=C(NC(=O)c1ccsc1NC(=O)c1nc2ncccc2s1)OCCOCc1ccccc1 [Compound 437]	–	< 25 µg/mL	< 1 µg/mL
COC(=O)COC(=O)NC(=O)c1ccsc1NC(=O)c1nc2cnccc2s1 [Compound 431]	–	25 to 50 µg/mL (≈ 59.5 to 119 µM)	< 1 µg/mL
CCOC(=O)NC(=O)c1cc(C)sc1NC(=O)c1nc2ccccc2s1 [Compound 14]	< 1 µg/mL	–	–
CCOC(=O)NC(=O)c1ccsc1NC(=O)c1cc2cccc(F)c2s1 [Compound 407]	–	< 25 µg/mL	< 1 µg/mL
CCOC(=O)NC(=O)c1cc(Cl)sc1NC(=O)c1nc2cnccc2s1 [Compound 445]	–	–	< 1 µg/mL
COC(=O)c1ccsc1NC(=O)c1nc2cnccc2s1 [Compound 432]	–	25 to 50 µg/mL (≈ 78.3 to 157 µM)	> 3 µg/mL
COCCOC(=O)NC(=O)c1ccsc1NC(=O)c1nc2ncccc2s1 [Compound 436]	–	25 to 50 µg/mL (≈ 61.5 to 123 µM)	> 3 µg/mL
CCOC(=O)NC(=O)c1ccsc1NC(=O)c1nc2c(s1)N(S(C)(=O)=O)CCC2 [Compound 233]	–	> 50 µg/mL	–
O=C(Nc1sccc1C(=O)Nc1ncccn1)c1nc2cnccc2s1 [Compound 441]	–	25 to 50 µg/mL (≈ 65.4 to 131 µM)	< 1 µg/mL
CCOC(=O)NC(=O)c1ccsc1NC(=O)c1ccc2ncsc2c1 [Compound 42]	< 1 µg/mL	< 25 µg/mL	–
CCOC(=O)NC(=O)c1ccsc1NC(=O)c1ccc2nsnc2c1 [Compound 448]	–	–	< 1 µg/mL
CC(C)OC(=O)NC(=O)c1ccsc1NC(=O)c1ccc2nonc2c1 [Compound 403]	–	< 25 µg/mL	< 1 µg/mL
O=C(Nc1sccc1C(=O)NC(=O)N1CCCCC1)c1nc2cnccc2s1 [Compound 428]	–	> 50 µg/mL	1 to 3 µg/mL (≈ 2.41 to 7.22 µM)
O=C(Nc1sccc1C(=O)N1CCNCC1)c1nc2ccccc2s1 [Compound 228]	–	< 25 µg/mL	–
CCOC(=O)NC(=O)c1ccsc1NC(=O)c1cn2cc(S(C)(=O)=O)ccc2n1 [Compound 438]	–	25 to 50 µg/mL (≈ 57.3 to 115 µM)	< 1 µg/mL
O=C(NC(=O)c1ccsc1NC(=O)c1nc2ccccc2s1)OC1CCCCC1 [Compound 30]	< 1 µg/mL	> 50 µg/mL	–
CCOC(=O)NC(=O)c1ccsc1NC(=O)c1cn2ccc(C#N)cc2n1 [Compound 405]	–	< 25 µg/mL	1 to 3 µg/mL (≈ 2.61 to 7.82 µM)
CCOC(=O)NC(=O)c1ccsc1NC(=O)c1csc2c1CCN(S(C)(=O)=O)C2 [Compound 230]	–	> 50 µg/mL	–
CCCCOC(=O)NC(=O)c1ccsc1NC(=O)c1nc2ccccc2s1 [Compound 19]	< 1 µg/mL	–	–
CCOC(=O)NC(=O)c1ccsc1NC(=O)c1nc2ccncc2s1 [Compound 458]	–	–	> 3 µg/mL

Structure (SMILES)	MIC (Mtb; read-out: MIC (I))	CC50 (in vitro)	MIC (Mtb; [1])
CCOC(=O)NC(=O)c1ccsc1NC(=O)c1nc2cc(CN)cnc2s1 [Compound 416]	–	> 50 µg/mL	1 to 3 µg/mL (≈ 2.47 to 7.4 µM)
CCOC(=O)NC(=O)c1ccsc1NC(=O)c1cncc(NC(C)=O)c1 [Compound 22]	< 1 µg/mL	–	–
COC(=O)CCCNC(=O)c1ccsc1NC(=O)c1nc2ccccc2s1 [Compound 236]	–	> 50 µg/mL	–
CCOC(=O)NC(=O)c1cnn(C)c1NC(=O)c1nc2ccccc2s1 [Compound 105]	> 3 µg/mL	–	–
CCOC(=O)NC(=O)c1ccsc1NC(=O)c1csc2c1CCCC2 [Compound 231]	–	< 25 µg/mL	–
CCOC(=O)NC(=O)c1ccsc1NC(=O)c1ccc2c(c1)OCO2 [Compound 27]	< 1 µg/mL	< 25 µg/mL	–
CC(C)OC(=O)NC(=O)c1ccsc1NC(=O)c1ccn2cnnc2c1 [Compound 452]	–	–	< 1 µg/mL
CCOC(=O)NC(=O)c1ccsc1NC(=O)c1cc2c(s1)CCCC2 [Compound 239]	–	> 50 µg/mL	–
CCOC(=O)NC(=O)c1ccsc1NC(=O)c1nc(-c2ccccc2)cs1 [Compound 240]	–	> 50 µg/mL	–
CCOS(=O)(=O)NC(=O)c1ccsc1NC(=O)c1nc2ccccc2s1 [Compound 108]	> 3 µg/mL	–	–
O=C(Nc1sccc1C(=O)Nc1ccccn1)c1nc2cnccc2s1 [Compound 454]	–	–	> 3 µg/mL
CCOC(=O)NC(=O)c1cc(Cl)sc1NC(=O)c1nc2ccccc2s1 [Compound 15]	< 1 µg/mL	–	–
O=C(Nc1sccc1C(=O)N1CCNC1=O)c1nc2ccccc2s1 [Compound 226]	–	> 50 µg/mL	–
Nc1nnc(-c2ccsc2NC(=O)c2nc3ccccc3s2)o1 [Compound 210]	–	> 50 µg/mL	–
CN1CCN(C(=O)c2ccsc2NC(=O)c2nc3ccccc3s2)CC1 [Compound 225]	–	25 to 50 µg/mL (≈ 64.7 to 129 µM)	–
CCOC(=O)NC(=O)c1ccsc1NC(=O)c1ccnc2cc(Cl)ccc12 [Compound 450]	–	–	> 3 µg/mL
Cc1nnc(NC(=O)c2ccsc2NC(=O)c2nc3ccccc3s2)s1 [Compound 110]	> 3 µg/mL	–	–
CNC(=O)CNC(=O)c1ccsc1NC(=O)c1nc2ccccc2s1 [Compound 235]	–	> 50 µg/mL	–
COC(=O)NC(=O)c1ccsc1NC(=O)c1nc2ccccc2s1 [Compound 21]	< 1 µg/mL	–	–
CCOC(=O)NC(=O)c1ccccc1NC(=O)c1nc2ccccc2s1 [Compound 214]	–	> 50 µg/mL	–
CCOC(=O)NC(=O)c1ccsc1NC(=O)c1cc(NC(C)=O)ccn1 [Compound 111]	> 3 µg/mL	–	–

Structure (SMILES)	MIC (Mtb; read-out: MIC (I))	CC50 (in vitro)	MIC (Mtb; [1])
COC(=O)c1cccnc1NC(=O)c1nc2ccccc2s1 [Compound 444]	–	–	1 to 3 µg/mL (≈ 3.19 to 9.57 µM)
CCOC(=O)NC(=O)c1ccsc1NC(=O)c1ccc(-c2csc(C)n2)cc1 [Compound 241]	–	> 50 µg/mL	–
CCOC(=O)NC(=O)c1ccsc1NC(=O)c1cc2c(s1)CCN(S(C)(=O)=O)C2 [Compound 232]	–	> 50 µg/mL	–
CCOC(=O)NC(=O)c1ccsc1NC(=O)c1nc2ccc(C)nc2s1 [Compound 224]	–	> 50 µg/mL	–
O=C(Nc1sccc1C(=O)N1CCOC1=O)c1nc2ccccc2s1 [Compound 107]	> 3 µg/mL	–	–
CCOC(=O)NC(=O)c1ccsc1NC(=O)c1nc2ncc(C)cc2s1 [Compound 457]	–	–	< 1 µg/mL
CCOC(=O)NC(=O)c1ccsc1NCc1nc2ccccc2s1 [Compound 209]	–	> 50 µg/mL	–
CC(C)(C)OC(=O)NC(=O)c1ccsc1NC(=O)c1nc2ccccc2s1 [Compound 23]	< 1 µg/mL	–	–
CCOC(=O)NC(=O)c1ncsc1NC(=O)c1nc2ccccc2s1 [Compound 106]	> 3 µg/mL	–	–
O=C(Nc1sccc1C(=O)NCC1CCCO1)c1nc2cnccc2s1 (stereo not drawn) [Compound 455]	–	–	> 3 µg/mL
COC(=O)CNC(=O)c1ccsc1NC(=O)c1nc2ccccc2s1 [Compound 234]	–	> 50 µg/mL	–
CC(C)(C)OC(=O)N1CCN(C(=O)c2ccsc2NC(=O)c2nc3ccccc3s2)CC1 [Compound 227]	–	> 50 µg/mL	–
CCOC(=O)NC(=O)c1cc(C)sc1NC(=O)c1nc2ncccc2s1 [Compound 446]	–	–	< 1 µg/mL
O=C(Nc1sccc1C(=O)Nc1ncco1)c1nc2cnccc2s1 [Compound 456]	–	–	1 to 3 µg/mL (≈ 2.69 to 8.08 µM)
CCNC(=O)NC(=O)c1ccsc1NC(=O)c1nc2ccccc2s1 [Compound 109]	> 3 µg/mL	–	–
CCOC(=O)NC(=O)c1c(NC(=O)c2nc3ccccc3s2)sc(C#N)c1C [Compound 216]	–	> 50 µg/mL	–
CCOC(=O)NC(=O)c1cc(C)sc1NC(=O)c1nc2cnccc2s1 [Compound 443]	–	–	< 1 µg/mL
CC(C)OC(=O)NC(=O)c1ccsc1NC(=O)c1ccc2nsnc2c1 [Compound 449]	–	–	< 1 µg/mL
CC(C)OC(=O)NC(=O)c1ccsc1NC(=O)c1cccc2cc(Cl)ccc12 [Compound 447]	–	–	1 to 3 µg/mL (≈ 2.4 to 7.2 µM)
CCOC(=O)NC(=O)c1ccsc1NC(=O)c1ccn2cnnc2c1 [Compound 451]	–	–	< 1 µg/mL
CCOC(=O)NC(=O)c1ccsc1NC(=O)Cc1nc2ccccc2s1 [Compound 238]	–	25 to 50 µg/mL (≈ 64.2 to 128 µM)	–
